Source: PMC12051620, “Molecular basis underlying the specificity of an antagonist AA92593 for mammalian melanopsins” (The Journal of Biological Chemistry, 2025)
“Also recorded” adds a separate entry of the source.

Experiments:
Assay type in all cases: cell-based
[1] = target: T1, mouse melanopsin F94^2.61C/S188^ECL2T/S269^6.52A mutant (Mus musculus, UniProt Q9QXZ9, F126C/S221T/S310A); assay: NanoBiT Gq dissociation assay; conditions: 1.67 and 16.7 μM AA92593; COS-1 cells
T1 construct: expressed in transfected cells; host or cells: COS-1
Text: As described above, we have assessed the inhibitory effect of AA92593 using the GsX GloSensor assay. To confirm whether an antagonistic effect could be observed in another experimental system, we used the NanoBiT G protein dissociation assay ([23]). In this assay, Gq activation (dissociation) is detected as a decrease in NanoLuc luminescence from the Lg-BiT fragment inserted with Gqα and the Sm-BiT fragment fused with Gβγ (see “Experimental procedures”) ([23], [24]). If an antagonistic effect is observed in the NanoBiT assay, the light-dependent decrease in luminescence (Gq dissociation) by melanopsin would be reduced in the presence of AA92593. […]
(§1) For GloSensor assay, opsins, GloSensor assay sensor (coded by pGlo-22F), and NanoBiT-tagged G proteins were transiently expressed in COS-1 cells (kindly provided from Dr David Farrens, Oregon Health and Science University) using PEI as described previously ([24], [52]). […] For GFP-fluorescence microscopy, a 35-mm cell culture dish (IWAKI) was transfected with 2 μg melanopsin-GFP plasmid and 8 μg PEI in 400 μl Opti-mem and 1.2 ml D-MEM. […]
The transfected COS-1 cells were incubated at 37 °C, 5% CO2 for 1 day, and the medium was aspirated, followed by the addition of 50 μl of HBSS containing 33.3, 3.33, or 0 μM AA92593, 0.5% DMSO, and 10 μM coelenterazine h (Wako). […] Luminescence was measured using GM-2000 or GM-3510 microplate reader (Promega). […]

[2] = system: mouse melanopsin S269^6.52A mutant; assay: GsX GloSensor assay with Gsα/q11; conditions: 16.7 μM AA92593, COS-1 cells
human melanopsin WT = target: T2, human melanopsin WT (Homo sapiens, UniProt Q9UHM6); assay: NanoBiT Gq dissociation assay using Gqα/R183Q-LgBiT; conditions: 1.67 and 16.7 μM AA92593; COS-1 cells; concentration-dependent
T2 construct: expressed in transfected cells; host or cells: COS-1
T2 sequence (Q9UHM6 1-384 limits assumed): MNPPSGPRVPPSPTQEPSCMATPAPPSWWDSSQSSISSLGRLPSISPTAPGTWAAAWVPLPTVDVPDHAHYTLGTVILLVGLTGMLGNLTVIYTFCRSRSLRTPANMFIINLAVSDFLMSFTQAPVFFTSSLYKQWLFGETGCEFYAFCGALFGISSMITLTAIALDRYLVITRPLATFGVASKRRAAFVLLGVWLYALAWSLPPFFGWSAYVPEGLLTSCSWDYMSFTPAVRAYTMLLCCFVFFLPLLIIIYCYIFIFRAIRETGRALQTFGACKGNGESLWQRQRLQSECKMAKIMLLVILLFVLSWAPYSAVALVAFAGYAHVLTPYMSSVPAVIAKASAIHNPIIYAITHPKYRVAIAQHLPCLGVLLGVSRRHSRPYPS
Text: (§2) As described above, we have assessed the inhibitory effect of AA92593 using the GsX GloSensor assay. To confirm whether an antagonistic effect could be observed in another experimental system, we used the NanoBiT G protein dissociation assay ([23]). In this assay, Gq activation (dissociation) is detected as a decrease in NanoLuc luminescence from the Lg-BiT fragment inserted with Gqα and the Sm-BiT fragment fused with Gβγ (see “Experimental procedures”) ([23], [24]). If an antagonistic effect is observed in the NanoBiT assay, the light-dependent decrease in luminescence (Gq dissociation) by melanopsin would be reduced in the presence of AA92593. […] A recent study reported that the introduction of a GTPase-deficient substitution, R183Q, on Gqα increased GPCR-induced Gq dissociation signals in a BRET-based biosensor assay, TRUPATH ([25]). […]
as §1
(§3) The transfected COS-1 cells were incubated at 37 °C, 5% CO2 for 1 day, and the medium was aspirated, followed by the addition of 50 μl of HBSS containing 33.3, 3.33, or 0 μM AA92593, 0.5% DMSO, and 10 μM coelenterazine h (Wako). […] After incubation of the cells, luminescence measurement was interrupted, the plate was ejected, and the cells were added 50 μl of HBSS containing 0.2 μM 9-cis-retinal. […] Luminescence was measured using GM-2000 or GM-3510 microplate reader (Promega). Luminescence level of each well was measured every 18 s with integration time of 0.3 s. To illuminate opsins, luminescence measurement was interrupted, the plate was ejected, and the plate was illuminated by white light with CN-160 LED video light (light intensity, ∼9 mW/cm^2) (NEEWER). After illumination, luminescence measurement was resumed. […]

[3] = target: T3, human melanopsin F94^2.61C/S188^ECL2T/W189^ECL2F/S269^6.52A mutant (Homo sapiens, UniProt Q9UHM6, F127C/S222T/S313A/W223F); assay: as above; conditions: 1.67 and 16.7 μM AA92593; COS-1 cells
T3 construct: expressed in transfected cells; host or cells: COS-1
Text: as §2, §1, §3

[4] = target: T4, human melanopsin F94^2.61C/S188^ECL2T/S269^6.52A mutant (Homo sapiens, UniProt Q9UHM6, F127C/S222T/S313A); assay: as above; conditions: 1.67 and 16.7 μM AA92593; COS-1 cells
T4 construct: expressed in transfected cells; host or cells: COS-1
Text: as §2, §1, §3

human melanopsin = target: T5, human melanopsin (Homo sapiens, UniProt Q9UHM6); assay: GloSensor cAMP assay via endogenous G proteins; design: the C-terminal amino acid residues (94, 140, 200, 214, 296, and 308 residues); expressed in transfected cells; host or cells: COS-1; conditions: COS-1 cells, no exogenous G protein
T5 sequence (Q9UHM6 1-384 limits assumed): T2 sequence (Q9UHM6 1-384 limits assumed)

T4 sequence (Q9UHM6 1-384 F127C/S222T/S313A): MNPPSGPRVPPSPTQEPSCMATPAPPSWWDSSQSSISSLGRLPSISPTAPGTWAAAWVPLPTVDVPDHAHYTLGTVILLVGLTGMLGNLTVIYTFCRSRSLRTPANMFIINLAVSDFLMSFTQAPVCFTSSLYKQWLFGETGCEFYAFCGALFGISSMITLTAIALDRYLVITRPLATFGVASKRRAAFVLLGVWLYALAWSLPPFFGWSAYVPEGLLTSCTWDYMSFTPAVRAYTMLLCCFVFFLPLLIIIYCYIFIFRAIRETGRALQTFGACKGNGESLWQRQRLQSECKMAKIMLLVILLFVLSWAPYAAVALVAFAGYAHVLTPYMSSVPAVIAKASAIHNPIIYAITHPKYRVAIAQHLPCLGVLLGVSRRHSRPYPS
T1 sequence (Q9QXZ9 1-381 F126C/S221T/S310A): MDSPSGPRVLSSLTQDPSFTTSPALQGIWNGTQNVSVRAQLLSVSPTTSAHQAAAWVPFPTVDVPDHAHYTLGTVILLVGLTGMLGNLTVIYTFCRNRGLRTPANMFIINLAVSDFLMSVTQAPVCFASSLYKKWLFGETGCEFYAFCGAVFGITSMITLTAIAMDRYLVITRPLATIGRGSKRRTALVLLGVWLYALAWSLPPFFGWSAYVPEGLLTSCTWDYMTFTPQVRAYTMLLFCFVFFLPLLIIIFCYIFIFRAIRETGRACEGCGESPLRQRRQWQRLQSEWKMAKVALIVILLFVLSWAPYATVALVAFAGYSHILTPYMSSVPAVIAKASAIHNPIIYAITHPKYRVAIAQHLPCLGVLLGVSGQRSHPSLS
T3 sequence (Q9UHM6 1-384 F127C/S222T/W223F/S313A): as the sequence (Q9UHM6 1-384 F127C/S222T/S313A) above, with W223F counted along it

COc1ccc(S(=O)(=O)N2CCCCC2)cc1C [AA92593]
antagonistic effect on Gq activation compared to WT [1]: similarly reduced | reduction of the antagonistic effect of AA92593 vs WT [2]: ~25% | effect on light-dependent decrease in NanoLuc luminescence (Gq dissociation) (human melanopsin WT): weakened | sensitivity to AA92593 in Gq dissociation [3]: little sensitivity | AA92593-dependent inhibitory effect on Gq activation compared to WT [4]: much reduced; also recorded: almost insensitive | effect on endogenous G protein-induced cAMP responses (human melanopsin): inhibited
